Experiments:
Assay type in all cases: toxicity, cell-based
[1] = test system: Fibroblast; assay: Incucyte cell viability with human fibroblast; details: 10 µM, compound concentration 10 uM
[2] = test system: HEK-293T; assay: Incucyte cell viability with HEK293T; details: human, 10 µM, compound concentration 10 uM
[3] = test system: U2OS; assay: Incucyte cell viability with U2OS; details: human, 10 µM, compound concentration 10 uM
Also: unitless GR value; below 1 slowed growth and below 0 cell loss.

COc1cc(C(=O)N2CC[C@@H](O)[C@@H](N)C2)cc2nc(-c3cc4ccccc4n3CC3CC3)n(C)c12.Cl
Growth Rate ([1]; 6 h, replicate number 1): -1
Growth Rate ([1]; 6 h, replicate number 2): -0.02
Growth Rate ([1]; 12 h, replicate number 2): 0.16
Growth Rate ([1]; 18 h, replicate number 2): 0.2
Growth Rate ([1]; 24 h, replicate number 2): 0.27
Growth Rate ([2]; 6 h, replicate number 1): 0.46
Growth Rate ([2]; 6 h, replicate number 2): -0.12
Growth Rate ([2]; 12 h, replicate number 1): 0.73
Growth Rate ([2]; 12 h, replicate number 2): 0.39
Growth Rate ([2]; 18 h, replicate number 1): 0.82
Growth Rate ([2]; 18 h, replicate number 2): 0.3
Growth Rate ([2]; 24 h, replicate number 1): 0.58
Growth Rate ([2]; 24 h, replicate number 2): 0.27
Growth Rate ([3]; 0 h, replicate number 1): -0.93

Cl.O=C1c2cccc3c2[C@H](CCC3)CN1[C@@H]1CN2CCC1CC2 [PALONOSETRON HYDROCHLORIDE]
Growth Rate ([1]; 0 h, replicate number 2): 0.54
Growth Rate ([1]; 6 h, replicate number 1): -0.99
Growth Rate ([1]; 24 h, replicate number 2): 0.92
Growth Rate ([2]; 0 h, replicate number 1): 0.61
Growth Rate ([2]; 6 h, replicate number 1): 0.51
Growth Rate ([2]; 6 h, replicate number 2): -0.08
Growth Rate ([2]; 12 h, replicate number 1): 0.41
Growth Rate ([2]; 12 h, replicate number 2): 0.03
Growth Rate ([2]; 18 h, replicate number 1): 0.55
Growth Rate ([2]; 18 h, replicate number 2): 0.08
Growth Rate ([2]; 24 h, replicate number 1): 0.34
Growth Rate ([2]; 24 h, replicate number 2): 0.19
Growth Rate ([3]; 0 h, replicate number 1): -0.52
Growth Rate ([3]; 0 h, replicate number 2): -0.79
Growth Rate ([3]; 24 h, replicate number 1): 0.92
Growth Rate ([3]; 24 h, replicate number 2): 0.98

COc1cccc(CNc2ccc(S(=O)(=O)Nc3nc4ccccc4s3)cc2)c1O [VLX-1005]
Growth Rate ([1]; 6 h, replicate number 2): 0.25
Growth Rate ([1]; 12 h, replicate number 2): 0.76
Growth Rate ([1]; 18 h, replicate number 2): 0.84
Growth Rate ([1]; 24 h, replicate number 1): 1
Growth Rate ([1]; 24 h, replicate number 2): 0.84
Growth Rate ([2]; 0 h, replicate number 1): 0.18
Growth Rate ([2]; 18 h, replicate number 1): 0.96
Growth Rate ([3]; 6 h, replicate number 1): 0.62
Growth Rate ([3]; 12 h, replicate number 1): 0.89
Growth Rate ([3]; 24 h, replicate number 1): 0.99

COc1ccc(S(=O)(=O)N2CCOCC2)cc1Nc1ccc2c(n1)N(C1CCOCC1)[C@H](C)C(=O)N2C
Growth Rate ([1]; 0 h, replicate number 2): -0.13
Growth Rate ([1]; 6 h, replicate number 2): -0.44
Growth Rate ([1]; 12 h, replicate number 2): 0.55
Growth Rate ([1]; 18 h, replicate number 2): 0.25
Growth Rate ([1]; 24 h, replicate number 2): 0.36
Growth Rate ([2]; 24 h, replicate number 1): 0.7
Growth Rate ([2]; 24 h, replicate number 2): 0.81
Growth Rate ([3]; 24 h, replicate number 1): 0.7
Growth Rate ([3]; 24 h, replicate number 2): 0.96

Cn1c(Nc2c(Cl)cccc2Cl)nc2ccc3nc[nH]c(=O)c3c21
Growth Rate ([1]; 6 h, replicate number 1): 0.64
Growth Rate ([1]; 6 h, replicate number 2): 0.1
Growth Rate ([1]; 12 h, replicate number 1): 0.65
Growth Rate ([1]; 12 h, replicate number 2): 0.35
Growth Rate ([1]; 18 h, replicate number 1): 0.71
Growth Rate ([1]; 18 h, replicate number 2): 0.42
Growth Rate ([1]; 24 h, replicate number 1): 0.51
Growth Rate ([1]; 24 h, replicate number 2): 0.33
Growth Rate ([2]; 0 h, replicate number 2): -1
Growth Rate ([2]; 6 h, replicate number 1): 0.08
Growth Rate ([2]; 6 h, replicate number 2): 0.03
Growth Rate ([3]; 0 h, replicate number 1): -0.24
Growth Rate ([3]; 0 h, replicate number 2): 0.87
Growth Rate ([3]; 6 h, replicate number 1): 0.95
Growth Rate ([3]; 6 h, replicate number 2): 0.19
Growth Rate ([3]; 12 h, replicate number 1): 0.97
Growth Rate ([3]; 12 h, replicate number 2): 0.74
Growth Rate ([3]; 18 h, replicate number 1): 0.86
Growth Rate ([3]; 18 h, replicate number 2): 0.83
Growth Rate ([3]; 24 h, replicate number 1): 0.98
Growth Rate ([3]; 24 h, replicate number 2): 0.85

Cn1nc(C(=O)NCc2ccc(C(=O)O)cc2)cc1-c1ccc2[nH]ccc2c1 [BI 4395]
Growth Rate ([1]; 0 h, replicate number 2): -0.67
Growth Rate ([2]; 0 h, replicate number 1): -0.1
Growth Rate ([2]; 0 h, replicate number 2): 0.58
Growth Rate ([2]; 6 h, replicate number 2): 0.57
Growth Rate ([2]; 12 h, replicate number 2): 0.63
Growth Rate ([2]; 18 h, replicate number 2): 0.85
Growth Rate ([2]; 24 h, replicate number 2): 0.56
Growth Rate ([3]; 0 h, replicate number 2): 0.14
Growth Rate ([3]; 6 h, replicate number 1): 0.66
Growth Rate ([3]; 6 h, replicate number 2): 0.99
Growth Rate ([3]; 12 h, replicate number 2): 0.96
Growth Rate ([3]; 24 h, replicate number 2): 0.9

O=C(O)CCCCN(CCc1ccccc1OCc1ccc(CCc2ccccc2)cc1)Cc1ccc(C(=O)O)cc1
Growth Rate ([1]; 0 h, replicate number 2): -0.44
Growth Rate ([1]; 6 h, replicate number 1): 0.92
Growth Rate ([1]; 24 h, replicate number 1): 0.98
Growth Rate ([2]; 0 h, replicate number 1): 0.96
Growth Rate ([2]; 0 h, replicate number 2): 0.47
Growth Rate ([2]; 6 h, replicate number 1): 0.91
Growth Rate ([2]; 18 h, replicate number 1): 0.87
Growth Rate ([2]; 24 h, replicate number 1): 0.99
Growth Rate ([3]; 0 h, replicate number 1): 0.14
Growth Rate ([3]; 6 h, replicate number 1): 0.32
Growth Rate ([3]; 12 h, replicate number 1): 0.91
Growth Rate ([3]; 18 h, replicate number 1): 0.83
Growth Rate ([3]; 24 h, replicate number 1): 0.86

CNC(=O)c1ccc(C)c(-n2c(C)cc(OCc3ccc(F)cc3F)c(Br)c2=O)c1 [PH-797804]
Growth Rate ([1]; 0 h, replicate number 1): -0.91
Growth Rate ([1]; 6 h, replicate number 2): 0.91
Growth Rate ([1]; 12 h, replicate number 2): 0.99
Growth Rate ([2]; 0 h, replicate number 2): 0.72
Growth Rate ([3]; 0 h, replicate number 1): -0.97
Growth Rate ([3]; 0 h, replicate number 2): 0.65
Growth Rate ([3]; 6 h, replicate number 2): 0.54
Growth Rate ([3]; 12 h, replicate number 1): 0.91
Growth Rate ([3]; 12 h, replicate number 2): 0.75

— ChEMBL document CHEMBL5303304, “EUbOPEN Chemogenomics Library - IncuCyte” (2023)
